# Test results: US20220041606A1, “POSITIVE ALLOSTERIC MODULATORS OF THE MUSCARINIC ACETYLCHOLINE RECEPTOR M1” (Vanderbilt University, priority 2020, published 2022)
# Key:
# human mAChR M1 [1] = target: T1, human mAChR M1 (Homo sapiens, UniProt P11229); test: mAChR M1 cell-based functional assay (calcium mobilization), PAM activity: increase in the EC20 acetylcholine response; conditions: CHO-K1 cells expressing hM1; potentiation of EC20 acetylcholine response
# T1 construct: host or cells: CHO-K1 cells (ATCC), stably transfected using Lipofectamine2000
# T1 sequence (P11229 1-460): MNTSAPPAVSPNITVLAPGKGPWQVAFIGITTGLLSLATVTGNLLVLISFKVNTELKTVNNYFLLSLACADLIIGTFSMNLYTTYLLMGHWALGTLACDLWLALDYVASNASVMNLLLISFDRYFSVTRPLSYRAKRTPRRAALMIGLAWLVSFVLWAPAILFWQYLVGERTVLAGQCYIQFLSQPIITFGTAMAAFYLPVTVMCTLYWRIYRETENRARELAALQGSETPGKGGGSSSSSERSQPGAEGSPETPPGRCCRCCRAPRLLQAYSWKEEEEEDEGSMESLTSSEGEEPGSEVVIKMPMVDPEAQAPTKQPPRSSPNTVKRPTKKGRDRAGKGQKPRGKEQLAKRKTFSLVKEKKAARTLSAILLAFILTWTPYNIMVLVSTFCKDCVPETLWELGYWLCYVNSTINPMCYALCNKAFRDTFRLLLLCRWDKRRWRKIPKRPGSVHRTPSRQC
# Method in brief: (§1)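 Fluorescence ratio calcium read-out (Fluo-4 AM, FDSS 6000) in human M1-expressing CHO-K1 cells. Agonist activity taken as concentration-dependent rise after compound addition; potentiation as enhancement of a subsequent EC20 acetylcholine challenge. Curves from 11-point threefold dilutions fitted by four-parameter logistic; Emax expressed versus acetylcholine maximum.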
# human mAChR M1 [2] = target: T1, human mAChR M1; test: mAChR M1 cell-based functional assay (calcium mobilization), agonist activity upon compound addition; conditions: CHO-K1 cells expressing hM1; for EC50: compound alone, before acetylcholine addition; for Emax: relative to the maximum for acetylcholine
# Method in brief: as §1
Compound,EC50 (human mAChR M1 [1]) [nM],Emax (human mAChR M1 [1]) [%],EC50 (human mAChR M1 [2]) [nM],Emax (human mAChR M1 [2]) [%]
"O=C(N[C@H]1CCCCC[C@@H]1O)c1cn(Cc2ccc(-c3cscn3)cc2)c(=O)c2cccnc12 [Compound A60, N-((1S,2S)-2-hydroxycycloheptyl)-5-oxo-6-(4-(thiazol-4-yl)benzyl)-5,6-dihydro-1,6-naphthyridine-8-carboxamide]",610,34,> 10000,< 5
"Cc1cc(-c2ccc(Cn3cc(C(=O)N[C@H]4CCOC[C@@H]4O)c4ncccc4c3=O)c(F)c2)ccn1 [Compound A26, 6-(2-fluoro-4-(2-methylpyridin-4-yl)benzyl)-N-((3R,4S)-3-hydroxytetrahydro-2H-pyran-4-yl)-5-oxo-5,6-dihydro-1,6-naphthyridine-8-carboxamide]",490,75,–,10
"Cn1cc(-c2ccc(Cn3cc(C(=O)N[C@H]4CCCCC[C@@H]4O)c4occc4c3=O)c(F)c2)cn1 [Compound D16, 5-(2-fluoro-4-(1-methyl-1H-pyrazol-4-yl)benzyl)-N-((1S,2S)-2-hydroxycycloheptyl)-4-oxo-4,5-dihydrofuro[3,2-c]pyridine-7-carboxamide]",2020,75,> 10000,8
"COc1cc(-c2cc(F)c(Cn3cc(C(=O)N[C@H]4CCOC[C@@H]4O)c4ncccc4c3=O)c(F)c2)ccc1Cl [Compound A39, 6-((4′-chloro-3,5-difluoro-3′-methoxy-[1,1′-biphenyl]-4-yl)methyl)-N-((3R,4S)-3-hydroxytetrahydro-2H-pyran-4-yl)-5-oxo-5,6-dihydro-1,6-naphthyridine-8-carboxamide]",≥ 10000,41,> 10000,< 5
"Cn1cc(-c2ccc(Cn3cc(C(=O)N[C@H]4CCOC[C@@H]4O)c4nccn4c3=O)c(F)c2)cn1 [Compound B5, 6-(2-fluoro-4-(1-methyl-1H-pyrazol-4-yl)benzyl)-N-((3R,4S)-3-hydroxytetrahydro-2H-pyran-4-yl)-5-oxo-5,6-dihydroimidazo[1,2-c]pyrimidine-8-carboxamide]",46,68,150,62
"Cn1cc2c(-c3cc(F)c(Cn4cc(C(=O)N[C@H]5CCCCC[C@@H]5O)c5ncccc5c4=O)c(F)c3)cccc2n1 [Compound A23, 6-(2,6-difluoro-4-(2-methyl-2H-indazol-4-yl)benzyl)-N-((1S,2S)-2-hydroxycycloheptyl)-5-oxo-5,6-dihydro-1,6-naphthyridine-8-carboxamide]",210,67,> 10000,< 5
"O=C(N[C@H]1CCOC[C@@H]1O)c1cn(Cc2ccc(-c3cscn3)cc2)c(=O)n2ccnc12 [Compound B17, N-((3R,4S)-3-hydroxytetrahydro-2H-pyran-4-yl)-5-oxo-6-(4-(thiazol-4-yl)benzyl)-5,6-dihydroimidazo[1,2-c]pyrimidine-8-carboxamide]",470,83,> 10000,24
"Cn1cc2c(-c3cc(F)c(Cn4cc(C(=O)N[C@H]5CCC[C@@H]5O)c5nccnc5c4=O)c(F)c3)cccc2n1 [Compound A68, 6-(2,6-difluoro-4-(2-methyl-2H-indazol-4-yl)benzyl)-N-((1S,2S)-2-hydroxycyclopentyl)-5-oxo-5,6-dihydropyrido[3,4-b]pyrazine-8-carboxamide]",1200,74,–,8
"Cn1cc2c(-c3cc(F)c(Cn4cc(C(=O)NCC5CCCO5)c5occc5c4=O)c(F)c3)cccc2n1 (stereo not drawn) [Compound D25, 5-(2,6-difluoro-4-(2-methyl-2H-indazol-4-yl)benzyl)-4-oxo-N-((tetrahydrofuran-2-yl)methyl)-4,5-dihydrofuro[3,2-c]pyridine-7-carboxamide]",> 10000,53,> 10000,< 5
"CC[C@H](C)[C@@H](CO)NC(=O)c1cn(Cc2ccc(-c3cnn(C)c3)cc2F)c(=O)c2nccnc12 [Compound A83, 6-(2-fluoro-4-(1-methyl-1H-pyrazol-4-yl)benzyl)-N-((2S,3S)-1-hydroxy-3-methylpentan-2-yl)-5-oxo-5,6-dihydropyrido[3,4-b]pyrazine-8-carboxamide]",≥ 10000,26,> 10000,< 5
"Cc1cc(-c2cc(F)c(Cn3cc(C(=O)N[C@H]4CCC[C@@H]4O)c4ncccc4c3=O)c(F)c2)ccn1 [Compound A38, 6-(2,6-difluoro-4-(2-methylpyridin-4-yl)benzyl)-N-((1S,2S)-2-hydroxycyclopentyl)-5-oxo-5,6-dihydro-1,6-naphthyridine-8-carboxamide]",570,25,> 10000,< 5
"Cn1nccc1-c1ccc(Cn2cc(C(=O)N[C@H]3CCOC[C@@H]3O)c3ncccc3c2=O)c(F)c1 [Compound A45, 6-(2-fluoro-4-(1-methyl-1H-pyrazol-5-yl)benzyl)-N-((3R,4S)-3-hydroxytetrahydro-2H-pyran-4-yl)-5-oxo-5,6-dihydro-1,6-naphthyridine-8-carboxamide]",4370,70,> 10000,< 5
"Cn1cc(-c2ccc(Cn3cc(C(=O)N[C@H]4CCCCC[C@@H]4O)c4ncncc4c3=O)c(F)c2)cn1 [Compound A91, 6-(2-fluoro-4-(1-methyl-1H-pyrazol-4-yl)benzyl)-N-((1S,2S)-2-hydroxycycloheptyl)-5-oxo-5,6-dihydropyrido[4,3-d]pyrimidine-8-carboxamide]",≥ 10000,34,> 10000,< 5

# Next, values leading:
EC50 (human mAChR M1 [1]) [nM],Emax (human mAChR M1 [1]) [%],EC50 (human mAChR M1 [2]) [nM],Emax (human mAChR M1 [2]) [%],Compound
5870,65,> 10000,< 5,"Cn1cc(-c2ccc(Cn3cc(C(=O)N[C@@H]4CC[C@H]4O)c4ncccc4c3=O)c(F)c2)cn1 [Compound A9, 6-(2-fluoro-4-(1-methyl-1H-pyrazol-4-yl)benzyl)-N-((1R,2R)-2-hydroxycyclobutyl)-5-oxo-5,6-dihydro-1,6-naphthyridine-8-carboxamide]"
1370,68,–,34,"Cn1cc(-c2ccc(Cn3cc(C(=O)N[C@H]4CCOC[C@@H]4O)c4ncccc4c3=O)cn2)cn1 [Compound A15, N-((3R,4S)-3-hydroxytetrahydro-2H-pyran-4-yl)-6-((6-(1-methyl-1H-pyrazol-4-yl)pyridin-3-yl)methyl)-5-oxo-5,6-dihydro-1,6-naphthyridine-8-carboxamide]"
980,65,> 10000,< 5,"O=C(N[C@H]1CCOC[C@@H]1O)c1cn(Cc2c(F)cc(-c3cncs3)cc2F)c(=O)c2cccnc12 [Compound A49, 6-(2,6-Difluoro-4-(thiazol-5-yl)benzyl)-N-((3R,4S)-3-hydroxytetrahydro-2H-pyran-4-yl)-5-oxo-5,6-dihydro-1,6-naphthyridine-8-carboxamide]"
5130,32,> 10000,< 5,"Cn1ccc(-c2ccc(Cn3cc(C(=O)N[C@H]4CCC[C@@H]4O)c4occc4c3=O)c(F)c2)n1 [Compound D8, 5-(2-Fluoro-4-(1-methyl-1H-pyrazol-3-yl)benzyl)-N-((1S,2S)-2-hydroxycyclopentyl)-4-oxo-4,5-dihydrofuro[3,2-c]pyridine-7-carboxamide]"
620,77,5000,46,"Cn1cc2c(-c3cc(F)c(Cn4cc(C(=O)N[C@H]5CCCCC[C@@H]5O)c5nccnc5c4=O)c(F)c3)cccc2n1 [Compound A67, 6-(2,6-difluoro-4-(2-methyl-2H-indazol-4-yl)benzyl)-N-((1S,2S)-2-hydroxycycloheptyl)-5-oxo-5,6-dihydropyrido[3,4-b]pyrazine-8-carboxamide]"
93,84,5270,24,"Cn1cc2c(-c3cc(F)c(Cn4cc(C(=O)N[C@H]5CCOC[C@@H]5O)c5nccn5c4=O)c(F)c3)cccc2n1 [Compound B18, 6-(2,6-difluoro-4-(2-methyl-2H-indazol-4-yl)benzyl)-N-((3R,4S)-3-hydroxytetrahydro-2H-pyran-4-yl)-5-oxo-5,6-dihydroimidazo[1,2-c]pyrimidine-8-carboxamide]"
620,65,2880,12,"Cc1ccc(-c2cc(F)c(Cn3cc(C(=O)N[C@H]4CCOC[C@@H]4O)c4ncccc4c3=O)c(F)c2)cn1 [Compound A34, 6-(2,6-difluoro-4-(6-methylpyridin-3-yl)benzyl)-N-((3R,4S)-3-hydroxytetrahydro-2H-pyran-4-yl)-5-oxo-5,6-dihydro-1,6-naphthyridine-8-carboxamide]"
380,67,6020,55,"O=C(N[C@H]1CCOC[C@@H]1O)c1cn(Cc2ccc(-n3cccn3)cc2)c(=O)n2ccnc12 [Compound B12, 6-(4-(1H-Pyrazol-1-yl)benzyl)-N-((3R,4S)-3-hydroxytetrahydro-2H-pyran-4-yl)-5-oxo-5,6-dihydroimidazo[1,2-c]pyrimidine-8-carboxamide]"
